Data reported in PubChem BioAssay (NCI).
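48-hour exposure; five concentrations; linearly interpolated endpoints. TGI: total growth inhibition.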 Where a SMILES comes first, the peptide text is derived from it. [ ]: non-standard residue; d: D form. ξ: configuration not given here. ξLac(3-iPr) = CC(C)CC(O)C(=O)O; NMeV = CN[CH](C(=O)O)C(C)C; NMeA = CN[CH](C)C(=O)O; βAla = NCCC(=O)O

How the values were obtained:
Assay in all cases: NCI-60 cell line screen, 48 h
SF-295 CNS = test system: SF-295 CNS
CCRF-CEM leukemia = test system: CCRF-CEM leukemia
SNB-75 CNS = test system: SNB-75 CNS
HCC-2998 colon = test system: HCC-2998 colon
MDA-MB-231 breast = test system: MDA-MB-231 breast
OVCAR-8 ovarian = test system: OVCAR-8 ovarian
HOP-62 NSCLC = test system: HOP-62 NSCLC
MALME-3M melanoma = test system: MALME-3M melanoma
K-562 leukemia = test system: K-562 leukemia
A498 renal = test system: A498 renal
HT29 colon = test system: HT29 colon
HS 578T breast = test system: HS 578T breast
NCI-H226 lung = test system: NCI-H226 lung
EKVX NSCLC = test system: EKVX NSCLC
SW-620 colon = test system: SW-620 colon
MDA-N = test system: MDA-N
OVCAR-3 ovarian = test system: OVCAR-3 ovarian

Structure (SMILES)	TGI (SF-295 CNS) [µM]	TGI (CCRF-CEM leukemia) [µM]	TGI (SNB-75 CNS) [µM]	TGI (HCC-2998 colon) [µM]	TGI (MDA-MB-231 breast) [µM]	TGI (OVCAR-8 ovarian) [µM]	TGI (HOP-62 NSCLC) [µM]	TGI (MALME-3M melanoma) [µM]	TGI (K-562 leukemia) [µM]	TGI (A498 renal) [µM]	TGI (HT29 colon) [µM]	TGI (HS 578T breast) [µM]	TGI (NCI-H226 lung) [µM]	TGI (EKVX NSCLC) [µM]	TGI (SW-620 colon) [µM]	TGI (MDA-N) [µM]	TGI (OVCAR-3 ovarian) [µM]
COc1ccc(C2=C(N)c3ncccc3C2=O)cc1	> 100	> 100	> 100	> 100	> 100	> 100	> 100	> 100	> 100	> 100	> 100	> 100	> 100	> 100	> 100	> 100	> 100
COc1cccc(Nc2nc(N)nc(N)c2N)c1	60.7	52.7	> 100	> 100	58.5	> 100	> 100	> 100	> 100	> 100	> 100	> 100	> 100	> 100	91.1	36.8	> 100
Cc1ccnc2[nH]c(-c3ccc(F)cc3)cc(=O)c12	> 100	> 100	> 100	> 100	> 100	> 100	> 100	> 100	> 100	97.9	> 100	> 100	> 100	> 100	> 100	> 53.9	> 100
CSc1nc(C)c(CCOC(C)=O)c(Cl)n1	> 100	> 100	> 100	> 100	> 100	> 100	> 100	> 100	> 100	> 100	> 100	> 100	> 100	> 100	> 100	> 100	> 100
COc1cc2c(cc1OC)C(=O)C1(C2)[C@H](c2ccccc2)C2C(=O)c3cc(OC)c(OC)cc3C2[C@H]1c1ccccc1 (stereo not given in full)	> 100	> 100	> 100	> 100	> 100	> 100	> 100	> 100	> 100	> 100	> 100	> 100	> 100	> 100	> 100	> 100	> 100
COc1cc2c(cc1O)C1(Cc3ccc4c(c3C1=O)OCO4)N(C)CC2 (stereo not given)	> 100	> 100	> 100	> 100	> 100	> 100	> 100	> 100	> 100	> 100	> 100	> 100	> 100	> 100	> 100	> 100	> 100
CC1(c2ccc(Cl)s2)CC(c2ccc(Cl)s2)=C(C#N)C(=C(C#N)C#N)N1 (stereo not given)	29.8	> 100	38.6	34.5	47.1	50.4	36	43.1	> 100	37.8	36.8	61.6	> 100	32.6	52.4	49.5	28.4
O=C1c2c(ccc3c2CCC3)CC12Cc1ccccc1C2	> 100	46.1	91.1	89	71.3	> 100	> 100	54	79.3	96.2	47.1	> 100	62.8	> 100	93.7	90.5	82.2
ON[C@H]1C[C@@H](n2cnc3c(NC4CC4)ncnc32)[C@H](O)[C@@H]1O	> 100	> 100	> 100	> 100	> 100	> 100	> 100	> 100	> 100	> 100	> 100	> 100	> 100	> 100	> 100	> 100	> 100
O=c1cc(N=Nc2ccc(Cl)c(Cl)c2)[nH]c(=O)[nH]1	32.5	0.495	22.5	6.35	3.38	4.89	19.2	4.53	4.02	28.8	3.13	13.1	33.2	3.49	3.26	3.36	5.41
O=C1C=CC(=O)c2c(O)c(Br)c(Br)c(O)c21	36.9	3.92	38.4	35.2	7.43	25.7	24.8	2.54	1.75	36.9	9.89	69.1	55.6	58.7	3.44	5.67	15.8
COC(=O)[C@H]1COC(=O)N1	> 100	> 100	> 100	> 100	> 100	> 100	> 100	> 100	> 100	> 100	> 100	> 100	> 100	> 100	> 100	> 100	> 100
O=c1[nH]c(=O)n(C2CC(O)C(CO)O2)c2nc3ccc4cc5ccccc5cc4c3nc12 (stereo not given)	> 100	> 100	> 100	> 100	> 100	> 100	> 100	> 100	> 100	> 100	> 100	> 100	> 100	> 100	> 100	> 100	> 100
O=C(NC(Cc1cnc[nH]1)C(=O)N1CCCC1)C1CCCC1 (stereo not given)	> 100	> 100	> 100	> 100	> 100	> 100	> 100	> 100	> 100	> 100	> 100	> 100	> 100	> 100	> 100	> 100	> 100
ONC1=Nc2ccccc2C(=S)N2CSCC12 (stereo not given)	> 100	> 100	> 100	> 100	> 100	> 100	> 100	> 100	> 100	> 100	> 100	> 100	> 100	> 100	> 100	45.1	> 100
COC(=O)C1Cc2ccc3c(c2C1=O)CCCC3 (stereo not given)	> 100	> 100	> 100	> 100	> 100	> 100	> 100	> 100	> 100	> 100	> 100	> 100	> 100	> 100	> 100	> 100	> 100
CCC(C)C1NC(=O)C2CCCN2C(=O)C(CC(C)C)OC(=O)CCNC(=O)C(C)N(C)C(=O)C(C(C)C)N(C)C1=O (stereo not given) (cyclo([ξLac(3-iPr)]PI[NMeV][NMeA][βAla]); configuration not given here)	8.05	> 17.9	> 86.8	14.9	> 100	29.2	17.7	45.2	> 100	81.8	43.7	> 96.3	> 45.9	> 100	> 100	17.3	> 100
OC(c1ccc2c(c1)OCO2)c1ccc2c(c1)OCO2	> 100	> 100	> 100	> 100	> 100	> 100	> 100	> 100	> 100	> 100	> 100	> 100	> 100	> 100	> 100	> 100	> 100
COc1cc(/C=C\c2nnc(/C=C\c3ccc(O)c(OC)c3)s2)ccc1O	13.5	14.5	8.83	12.9	> 57.5	> 42.9	42	24	> 21.2	6.4	23.4	> 37.8	39	18.4	> 23.7	16.4	10.7
O=C(CCc1ccccc1)n1cccc1CO	> 100	> 100	> 100	> 100	> 100	> 100	> 100	> 100	> 100	> 100	> 100	> 100	> 100	> 100	> 100	> 100	> 100
